We go through one compound from US4129737A, “Process for the preparation of an 8-alkyl-5-oxo-5,8-dihydro-pyrido(2,3-d)pyrimidine-6-carboxylic acid” (priority 1972, dated 1978).

≈ marks a conversion by molar mass, not a printed value. Like-named read-outs stand apart in the source and are kept apart here.

In one data set the test system is Esch 111 B4. Put plainly: Average MIC, solid medium (nutrient agar) dilution method. The note with it: 18 h, average of five determinations, read-out: minimum inhibitory concentration, average. It is filed as cell-based.
In the next data set the test system is Esch. coli. LRB 67. Described as above. The note with it: Escherichia coli, 18 h, read-out: minimum inhibitory concentration, average.
The test system of a further data set is Streptococcus DM19. The data set is described as above. The note with it: DM19, 18 h, read-out: minimum inhibitory concentration, average.
Another data set concerns Pr. vulgaris. Description: Minimum inhibitory concentration by agar dilution, Pr. vulgaris. The class given is cell-based. The settings on record: Proteus vulgaris, 37° C., 18 hours, read-out: minimum inhibitory concentration (M.I.C.). In general terms: Agar dilution tests growth on a series of plates holding different concentrations.
A further data set deals with Esch. coli. 95 I.S.M. Description: Average MIC, solid medium (nutrient agar) dilution method. The note with it: Escherichia coli, 18 h, read-out: minimum inhibitory concentration, average.
The next data set has as its system Sh. sonnei I.P.S. The data set is described as above. The class given is cell-based. The settings on record: Shigella sonnei, 18 h, average of five determinations, read-out: minimum inhibitory concentration, average.
In the next data set the test system is Providencia 0223. The description is as above. The note with it: Providencia, 0223, 18 h, read-out: minimum inhibitory concentration, average.
Another data set concerns Pr. morganii A 236. The description is as above. The note with it: Morganella morganii, A236, 18 h, read-out: minimum inhibitory concentration, average.
A further data set relates to Salm. typhi. Put plainly: Minimum inhibitory concentration by agar dilution, Salm. typhi. The class given is cell-based. The settings on record: Salmonella enterica, 18 h.
A further data set concerns rats. Put plainly: Oral toxicity in rats. It is filed as in vivo. The settings on record: doses as high as 4 g per kilogram.
A further data set has as its system Esch. coli. Cho. Description: Average MIC, solid medium (nutrient agar) dilution method. The note with it: Escherichia coli, 18 h, read-out: minimum inhibitory concentration, average.
For another data set, the system named is Arizona 6211. The description is as above. The settings on record: 18 h, read-out: minimum inhibitory concentration, average.
For another data set, the system named is Bord. bronch. 4617. The data set is described as above. The note with it: 18 h, read-out: minimum inhibitory concentration, average.
The next data set has as its system Staphylococcus 9144. Described as above. The settings on record: Staphylococcus, 9144, 18 h, read-out: minimum inhibitory concentration, average.
Another data set relates to Ps. aeruginosa 72-345. The data set is described as above. The note with it: Pseudomonas aeruginosa, 72345, 18 h, read-out: minimum inhibitory concentration, average.
The subject of a further data set is Esch. coli. LRB 45. Described as above. The note with it: Escherichia coli, 18 h, read-out: minimum inhibitory concentration, average.
Another data set deals with Pr. mirabilis Nig. The data set is described as above. The note with it: Proteus mirabilis, 18 h, read-out: minimum inhibitory concentration, average.
For the next data set, the system named is B. pyocyaneus A22. Put plainly: Minimum inhibitory concentration by agar dilution, B. pyocyaneus A22. It is filed as cell-based. The note with it: Pseudomonas aeruginosa, A22, 37° C., 18 hours, read-out: minimum inhibitory concentration (M.I.C.).
The test system of a further data set is Pr. morganii. Description: Minimum inhibitory concentration by agar dilution, Pr. morganii. The class given is cell-based. The settings on record: Morganella morganii, 37° C., 18 hours, read-out: minimum inhibitory concentration (M.I.C.).
Where [1] appears, read: N.A. (nutrient agar, pH 6.8), Table I.
The mark [2] stands for this setting: T.S.A. (trypticase soya medium, pH 7.3).

As to `CCn1cc(C(=O)O)c(=O)c2cnc(N3CCNCC3)nc21` [Example VIII, 2-Piperazino-5-oxo-8-ethyl-5,8-dihydro-pyrido(2,3-d)pyrimidine-6-carboxylicacid], the MIC with Esch 111 B4 is 1.64 µg/mL (≈ 5.41 µM); in the data set on Esch. coli. LRB 67, 1.2 µg/mL (≈ 3.96 µM); with Streptococcus DM19, 100 µg/mL (≈ 330 µM); with Pr. vulgaris (setting [1]), 6.2 µg/mL (≈ 20.4 µM); in the data set with Pr. vulgaris (setting [2]), 1.6 µg/mL (≈ 5.27 µM); in the data set on Esch. coli. 95 I.S.M., 5.14 µg/mL (≈ 16.9 µM). The MIC with Sh. sonnei I.P.S. was 0.56 µg/mL (≈ 1.85 µM); with Providencia 0223, 16.2 µg/mL (≈ 53.5 µM); in the data set on Pr. morganii A 236 it was 0.4 µg/mL (≈ 1.32 µM); with Salm. typhi (pH 6.8, read-out: minimum inhibitory concentration (M.I.C.)), 6.2 µg/mL (≈ 20.4 µM); in the data set with Salm. typhi (pH 7.3, read-out: minimum inhibitory concentration (M.I.C.)) it was 1.6 µg/mL (≈ 5.27 µM); with Esch. coli. Cho, 2.66 µg/mL (≈ 8.77 µM). The MIC in the data set with Arizona 6211 came out at 1.26 µg/mL (≈ 4.15 µM); in the data set on Bord. bronch. 4617, 75 µg/mL (≈ 247 µM); with Staphylococcus 9144 it was 6.22 µg/mL (≈ 20.5 µM); with Ps. aeruginosa 72-345 it was 13.7 µg/mL (≈ 45.3 µM); in the data set with Esch. coli. LRB 45 it was 2.04 µg/mL (≈ 6.73 µM); in the data set with Pr. mirabilis Nig, 1.58 µg/mL (≈ 5.21 µM). Also, the MIC with B. pyocyaneus A22 (setting [1]) stood at 25 µg/mL (≈ 82.4 µM); in the data set with B. pyocyaneus A22 (setting [2]) it was 12.5 µg/mL (≈ 41.2 µM); in the data set on Pr. morganii (setting [1]), 0.8 µg/mL (≈ 2.64 µM); in the data set on Pr. morganii (setting [2]) it was 0.8 µg/mL (≈ 2.64 µM). In addition, the deaths entry in the data set with rats is recorded as “no deaths were observed”.
